Several values for one entry are separate records, joined by “and”; a condition that tells them apart may be missing. Identical values can stand only once. Inconclusive results and toxic doses are left out. Cut-off read from the data, not from the text of the source: active = T/C of 150% or more; inactive = T/C below 125%.
System: L1210 leukemia ip in BDF1 mice, survival T/C
Experiment: NCI In Vivo Anticancer Drug Screen. Data for tumor model L1210 Leukemia (intraperitoneal) in B6D2F1 (BDF1) mice
Settings: endpoint: mean survival time, higher = longer survival
Outline: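 Survival endpoint. Drug-treated group vs vehicle group, expressed as T divided by C. Tumor passaged by transplantation.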

[1] = dose: 10.0 mg/kg/injection, schedule: Q01DX001 (ip), vehicle: saline
[2] = dose: 20.0 mg/kg/injection, schedule: Q01DX001 (ip), vehicle: saline
[3] = dose: 25.0 mg/kg/injection, schedule: Q04DX003 (ip), vehicle: Klucel (hydroxypropylcellulose) (HPC)
[4] = dose: 40.0 mg/kg/injection, schedule: Q01DX001 (ip), vehicle: saline
[5] = dose: 50.0 mg/kg/injection, schedule: Q01DX001 (ip), vehicle: carboxymethylcellulose (CMC)
[6] = dose: 50.0 mg/kg/injection, schedule: Q01DX009 (ip), vehicle: Klucel (hydroxypropylcellulose) (HPC)
[7] = dose: 50.0 mg/kg/injection, schedule: Q04DX003 (ip), vehicle: Klucel (hydroxypropylcellulose) (HPC)
[8] = dose: 100.0 mg/kg/injection, schedule: Q01DX001 (ip), vehicle: carboxymethylcellulose (CMC)
[9] = dose: 100.0 mg/kg/injection, schedule: Q04DX003 (ip), vehicle: Klucel (hydroxypropylcellulose) (HPC)
[10] = dose: 200.0 mg/kg/injection, schedule: Q04DX003 (ip), vehicle: Klucel (hydroxypropylcellulose) (HPC)
[11] = dose: 400.0 mg/kg/injection, schedule: Q04DX003 (ip), vehicle: Klucel (hydroxypropylcellulose) (HPC)
[12] = dose: 100.0 mg/kg/injection, schedule: Q01DX001 (ip), vehicle: Klucel (hydroxypropylcellulose) (HPC)
[13] = dose: 200.0 mg/kg/injection, schedule: Q01DX001 (ip), vehicle: Klucel (hydroxypropylcellulose) (HPC)
[14] = dose: 400.0 mg/kg/injection, schedule: Q01DX001 (ip), vehicle: Klucel (hydroxypropylcellulose) (HPC)
[15] = dose: 200.0 mg/kg/injection, schedule: Q01DX001 (ip), vehicle: carboxymethylcellulose (CMC)
[16] = dose: 100.0 mg/kg/injection, schedule: Q04DX002 (ip), vehicle: Klucel (hydroxypropylcellulose) (HPC)
[17] = dose: 200.0 mg/kg/injection, schedule: Q04DX002 (ip), vehicle: Klucel (hydroxypropylcellulose) (HPC)
[18] = dose: 400.0 mg/kg/injection, schedule: Q04DX002 (ip), vehicle: Klucel (hydroxypropylcellulose) (HPC)
[19] = dose: 100.0 mg/kg/injection, schedule: Q01DX009 (ip), vehicle: saline with Tween-80
[20] = dose: 400.0 mg/kg/injection, schedule: Q01DX001 (ip), vehicle: carboxymethylcellulose (CMC)
[21] = dose: 100.0 mg/kg/injection, schedule: Q01DX009 (ip), vehicle: Klucel (hydroxypropylcellulose) (HPC)
[22] = dose: 200.0 mg/kg/injection, schedule: Q01DX009 (ip), vehicle: Klucel (hydroxypropylcellulose) (HPC)
[23] = dose: 400.0 mg/kg/injection, schedule: Q01DX009 (ip), vehicle: Klucel (hydroxypropylcellulose) (HPC)
[24] = dose: 200.0 mg/kg/injection, schedule: Q01DX009 (ip), vehicle: saline sonified
[25] = dose: 200.0 mg/kg/injection, schedule: Q01DX009 (ip), vehicle: saline with Tween-80
[26] = dose: 25.0 mg/kg/injection, schedule: Q01DX009 (ip), vehicle: saline with Tween-80
[27] = dose: 50.0 mg/kg/injection, schedule: Q01DX009 (ip), vehicle: saline with Tween-80
[28] = dose: 400.0 mg/kg/injection, schedule: Q01DX009 (ip), vehicle: saline with Tween-80
[29] = dose: 100.0 mg/kg/injection, schedule: Q04DX003 (ip), vehicle: saline with Tween-80

Measured: T/C

O=C1OC2CC3CC1C2C3 (centres undefined)
inactive: dose: 5.0 mg/kg/injection, schedule: Q01DX001 (ip), vehicle: other 91 % of control | dose: 10.0 mg/kg/injection, schedule: Q01DX001 (ip), vehicle: other 91 % of control | [1] 101 % of control | dose: 12.5 mg/kg/injection, schedule: Q01DX009 (ip), vehicle: Klucel (hydroxypropylcellulose) (HPC) 98 % of control | dose: 20.0 mg/kg/injection, schedule: Q01DX001 (ip), vehicle: other 95 % of control | [2] 105 % of control | dose: 25.0 mg/kg/injection, schedule: Q01DX009 (ip), vehicle: Klucel (hydroxypropylcellulose) (HPC) 96 % of control | [3] 95 % of control | dose: 40.0 mg/kg/injection, schedule: Q01DX001 (ip), vehicle: other 94 % of control | [4] 99 % of control | [5] 108 % of control | [6] 88 % of control | [7] 88 % of control | dose: 75.0 mg/kg/injection, schedule: Q01DX001 (ip), vehicle: acetone 97 % of control | [8] 108 % of control

COc1cc(CNC(=O)CCN2CC2)ccc1O
inactive: [7] 109 % of control | [9] 98 % of control | [10] 95 % of control | [11] 97 % of control

Cc1ccc2ccccc2c1NCCC(=O)O
inactive: [12] 101 % of control | [9] 104 % of control | [13] 100 % of control | [10] 98 % of control | [14] 91 % of control | [11] 102 % of control

CN(C(=O)C1(C)CC2C=CC1C2)c1ccccc1 (centres undefined)
inactive: [12] 100 % of control | [13] 102 % of control | [14] 97 % of control

N#CCc1ccc(C(=O)O)cc1
inactive: [8] 106 % of control | [15] 92 % of control

O=C(c1ccc2cc(Cl)c(Cl)cc2c1)C(Cl)Cl
inactive: dose: 25.0 mg/kg/injection, schedule: Q04DX002 (ip), vehicle: Klucel (hydroxypropylcellulose) (HPC) 90 % of control | dose: 50.0 mg/kg/injection, schedule: Q04DX002 (ip), vehicle: Klucel (hydroxypropylcellulose) (HPC) 108 % of control | [16] 93 % of control and 98 % of control

C1=NC(c2ccccc2)=CN(C2CCCCCC2)C1(c1ccccc1)C1CCCCCC1 (centres undefined)
inactive: dose: 50.0 mg/kg/injection, schedule: Q04DX002 (ip), vehicle: saline 99 % of control | [16] 98 % of control | dose: 100.0 mg/kg/injection, schedule: Q04DX002 (ip), vehicle: saline 101 % of control | [17] 88 % of control | dose: 200.0 mg/kg/injection, schedule: Q04DX002 (ip), vehicle: saline 96 % of control | [18] 95 % of control

CC(C)(C)P(=O)(O)O
inactive: [19] 95 % of control

Cc1c2cnccc2c(C)c2c1c1ccccc1n2CCCl
inactive: dose: 31.25 mg/kg/injection, schedule: Q01DX009 (ip), vehicle: saline with Tween-80 106 % of control | dose: 37.5 mg/kg/injection, schedule: Q04DX003 (ip), vehicle: saline 93 % of control | dose: 62.5 mg/kg/injection, schedule: Q01DX009 (ip), vehicle: saline with Tween-80 109 % of control | dose: 75.0 mg/kg/injection, schedule: Q04DX003 (ip), vehicle: saline 97 % of control | dose: 150.0 mg/kg/injection, schedule: Q04DX003 (ip), vehicle: saline 98 % of control | dose: 300.0 mg/kg/injection, schedule: Q04DX003 (ip), vehicle: saline 100 % of control

Nc1nc(N)nc(CCc2nc(N)nc(N)n2)n1
inactive: [5] 95 % of control | [8] 90 % of control | [15] 87 % of control | [20] 92 % of control

COc1ccccc1NC(=O)c1ccccc1F
inactive: [21] 95 % of control | [22] 95 % of control | [23] 101 % of control

CCN(CC)CCCOP(=O)(N(CC)CC)N(CCCl)CCCl (centres undefined)
inactive: dose: 200.0 mg/kg/injection, schedule: Q01DX001 (ip), vehicle: saline with Tween-80 101 % of control

CC(C)(C)C1CC=CCC1 (centres undefined)
inactive: dose: 50.0 mg/kg/injection, schedule: Q01DX009 (ip), vehicle: saline sonified 96 % of control | dose: 100.0 mg/kg/injection, schedule: Q01DX009 (ip), vehicle: saline sonified 102 % of control | [24] 100 % of control

CC(C)=C1C2CCC1C(CO)C2CO (centres undefined)
inactive: [21] 95 % of control | [9] 102 % of control | [22] 102 % of control | [10] 100 % of control | [23] 104 % of control | [11] 96 % of control

O=[N+]([O-])c1cc2c(cc1Br)nc(Cl)c1cc(Br)ccc12
inactive: [21] 89 % of control | [9] 104 % of control | [22] 91 % of control | [10] 100 % of control | [11] 96 % of control

O=c1ccnc(-c2ccccc2)[nH]1
inactive: [16] 119 % of control | [17] 119 % of control | [18] 114 % of control

Nc1ccc(Cl)cc1
inactive: [8] 98 % of control | [15] 101 % of control | [20] 110 % of control

CSc1ncc(C=O)c(N)n1
inactive: [19] 100 % of control | [25] 96 % of control

CCCCC(C(=O)OCC)C(CCC1CCCCC1)(C(=O)OCC)C(=O)OCC (centres undefined)
inactive: [21] 95 % of control | [9] 96 % of control | [22] 110 % of control | [10] 106 % of control | [23] 105 % of control | [11] 95 % of control

O=C1O/C(=C(\C(=O)O)c2ccccc2)C(O)=C1c1ccccc1
inactive: [21] 113 % of control | [9] 103 % of control | [22] 101 % of control | [10] 97 % of control | [23] 102 % of control | [11] 108 % of control

COc1ccc(SC(=O)Nc2cc([N+](=O)[O-])ccc2Cl)cc1
inactive: [26] 89 % of control | [27] 89 % of control

COC1=C(OC)C(=O)C(SC/C=C(\C)CCCC(C)CCCC(C)CCCC(C)C)=CC1=O (centres undefined)
inactive: dose: 6.25 mg/kg/injection, schedule: Q01DX009 (ip), vehicle: saline with Tween-80 103 % of control | dose: 12.5 mg/kg/injection, schedule: Q01DX009 (ip), vehicle: saline with Tween-80 105 % of control | [26] 100 % of control and 113 % of control | [27] 104 % of control and 122 % of control | [19] 105 % of control and 122 % of control | [25] 115 % of control and 124 % of control | [28] 115 % of control

O=C(/C=C(\c1ccccc1)c1ccc([N+](=O)[O-])cc1)Nc1ccc(S(=O)(=O)F)cc1
inactive: [29] 96 % of control | dose: 200.0 mg/kg/injection, schedule: Q04DX003 (ip), vehicle: saline with Tween-80 91 % of control | dose: 400.0 mg/kg/injection, schedule: Q04DX003 (ip), vehicle: saline with Tween-80 96 % of control

Clc1ccc(N=Cc2ccc(C=Nc3ccc(Cl)c(Cl)c3)cc2)cc1Cl
inactive: [9] 97 % of control | [24] 89 % of control | [10] 89 % of control | [11] 96 % of control

Clc1ccc(Cl)c(CBr)c1Cl
inactive: [3] 98 % of control | [6] 98 % of control | [7] 101 % of control | [21] 88 % of control | [9] 101 % of control | [29] 100 % of control | [22] 90 % of control

COc1cc(C[N+]23CC[N+](Cc4cc(OC)cc(OC)c4)(CC2)C3)cc(OC)c1
inactive: dose: 5.0 mg/kg/injection, schedule: Q01DX001 (ip), vehicle: saline 100 % of control | [1] 100 % of control | [2] 103 % of control | [4] 103 % of control | dose: 80.0 mg/kg/injection, schedule: Q01DX001 (ip), vehicle: saline 100 % of control

CC(O)c1cccc([N+](=O)[O-])c1 (centres undefined)
inactive: [19] 104 % of control | [25] 94 % of control | [28] 90 % of control

Reference: PubChem BioAssay AID248 (DTP/NCI, 2004)
